Measurements reported in ChEMBL document CHEMBL1201861, “Genomics of Drug Sensitity in Cancer screening data, Wellcome Trust Sanger Institute”.

Legend:
Test in all cases: cells
[1] = test system: CW-2; type: functional, cell-based, Homo sapiens; conditions: Homo sapiens, CW-2;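 note: growth inhibition of CW-2 cells, read out by a cell viability assay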
Description: SANGER: Inhibition of human CW-2 cell growth in a cell viability assay.

[2] = test system: Calu-6; type: functional, cell-based, Homo sapiens; conditions: Homo sapiens, Calu-6;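 note: growth of human Calu-6 cells, read out by a cell viability assay, IC50 marking inhibition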
Description: SANGER: Inhibition of human Calu-6 cell growth in a cell viability assay.

[3] = test system: D-502MG; type: functional, cell-based, Homo sapiens; conditions: Homo sapiens, D-502MG
Description: SANGER: Inhibition of human D-502MG cell growth in a cell viability assay.

[4] = test system: DSH1; type: functional, cell-based; conditions: Homo sapiens;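 note: growth inhibition of human DSH1 cells, measured with a cell viability readout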
Description: SANGER: Inhibition of human DSH1 cell growth in a cell viability assay.

[5] = test system: EKVX; type: functional, cell-based, Homo sapiens; conditions: Homo sapiens, EKVX;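 note: growth inhibition of human EKVX cells, read out with a cell viability assay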
Description: SANGER: Inhibition of human EKVX cell growth in a cell viability assay.

[6] = test system: EW-1; type: functional, cell-based, Homo sapiens; conditions: Homo sapiens, EW-1;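 note: growth inhibition of the human EW-1 cell line, read out by a cell viability assay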
Description: SANGER: Inhibition of human EW-1 cell growth in a cell viability assay.

[7] = test system: GCIY; type: functional, cell-based, Homo sapiens; conditions: Homo sapiens, GCIY;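 note: growth inhibition of the human GCIY cell line, read out by a cell viability assay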
Description: SANGER: Inhibition of human GCIY cell growth in a cell viability assay.

[8] = test system: GOTO; type: functional, cell-based, Homo sapiens; conditions: Homo sapiens, GOTO;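 note: growth inhibition of GOTO cells, read out by a cell viability assay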
Description: SANGER: Inhibition of human GOTO cell growth in a cell viability assay.

[9] = test system: GT3TKB; type: functional, cell-based, Homo sapiens; conditions: Homo sapiens, GT3TKB;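 note: growth inhibition of the cell line, read out with a cell viability assay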
Description: SANGER: Inhibition of human GT3TKB cell growth in a cell viability assay.

[10] = test system: HCE-4; type: functional, cell-based; conditions: Homo sapiens;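 note: cell viability assay measuring inhibition of growth in the human HCE-4 cell line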
Description: SANGER: Inhibition of human HCE-4 cell growth in a cell viability assay.

[11] = test system: HD-MY-Z; type: functional, cell-based, Homo sapiens; conditions: Homo sapiens, HD-MY-Z;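 note: growth inhibition of HD-MY-Z cells, read out with a cell viability assay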
Description: SANGER: Inhibition of human HD-MY-Z cell growth in a cell viability assay.

[12] = test system: HL-60; type: functional, cell-based, Homo sapiens; conditions: Homo sapiens, HL-60;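 note: growth inhibition of human HL-60 cells, read out with a cell viability assay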
Description: SANGER: Inhibition of human HL-60 cell growth in a cell viability assay.

[13] = test system: HOP-62; type: functional, cell-based, Homo sapiens; conditions: Homo sapiens, HOP-62;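 note: cell growth inhibition determined with a viability assay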
Description: SANGER: Inhibition of human HOP-62 cell growth in a cell viability assay.

[14] = test system: HT-144; type: functional, cell-based, Homo sapiens; conditions: Homo sapiens, HT-144
Description: SANGER: Inhibition of human HT-144 cell growth in a cell viability assay.

[15] = test system: KARPAS-299; type: functional, cell-based, Homo sapiens; conditions: Homo sapiens, KARPAS-299
Description: SANGER: Inhibition of human KARPAS-299 cell growth in a cell viability assay.

[16] = test system: KINGS-1; type: functional, cell-based, Homo sapiens; conditions: Homo sapiens, KINGS-1;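 note: cell viability assay measuring suppression of KINGS-1 cell growth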
Description: SANGER: Inhibition of human KINGS-1 cell growth in a cell viability assay.

[17] = test system: KM-H2; type: functional, cell-based, Homo sapiens; conditions: Homo sapiens, KM-H2;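 note: growth inhibition of KM-H2 cells, read out by a cell viability assay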
Description: SANGER: Inhibition of human KM-H2 cell growth in a cell viability assay.

[18] = test system: KS-1; type: functional, cell-based; conditions: Homo sapiens;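 note: growth inhibition of KS-1 cells, read out with a cell viability assay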
Description: SANGER: Inhibition of human KS-1 cell growth in a cell viability assay.

[19] = test system: KURAMOCHI; type: functional, cell-based, Homo sapiens; conditions: Homo sapiens, KURAMOCHI;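 note: growth inhibition of KURAMOCHI cells, read out with a cell viability assay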
Description: SANGER: Inhibition of human KURAMOCHI cell growth in a cell viability assay.

[20] = test system: LB2241-RCC; type: functional, cell-based, Homo sapiens; conditions: Homo sapiens, LB2241-RCC;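 note: cell viability assay measuring how strongly the cultured human renal carcinoma line is prevented from growing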
Description: SANGER: Inhibition of human LB2241-RCC cell growth in a cell viability assay.

[21] = test system: LB2518-MEL; type: functional, cell-based; conditions: Homo sapiens;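 note: growth inhibition of human LB2518-MEL cells, measured with a cell viability assay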
Description: SANGER: Inhibition of human LB2518-MEL cell growth in a cell viability assay.

[22] = test system: LNCaP-Clone-FGC; type: functional, cell-based, Homo sapiens; conditions: Homo sapiens, LNCaP-Clone-FGC
Description: SANGER: Inhibition of human LNCaP-Clone-FGC cell growth in a cell viability assay.

[23] = test system: MHH-PREB-1; type: functional, cell-based, Homo sapiens; conditions: Homo sapiens, MHH-PREB-1;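 note: cell viability assay measuring inhibition of proliferation of human MHH-PREB-1 cells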
Description: SANGER: Inhibition of human MHH-PREB-1 cell growth in a cell viability assay.

[24] = test system: MLMA; type: functional, cell-based, Homo sapiens; conditions: Homo sapiens, MLMA;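 note: growth inhibition of MLMA cells (human), determined through a cell viability readout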
Description: SANGER: Inhibition of human MLMA cell growth in a cell viability assay.

[25] = test system: MN-60; type: functional, cell-based, Homo sapiens; conditions: Homo sapiens, MN-60;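 note: growth inhibition of the MN-60 cell line, determined with a cell viability assay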
Description: SANGER: Inhibition of human MN-60 cell growth in a cell viability assay.

[26] = test system: NB13; type: functional, cell-based, Homo sapiens; conditions: Homo sapiens, NB13;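 note: cell viability readout measuring growth inhibition of human NB13 cells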
Description: SANGER: Inhibition of human NB13 cell growth in a cell viability assay.

[27] = test system: NCI-H1304; type: functional, cell-based, Homo sapiens; conditions: Homo sapiens, NCI-H1304;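 note: growth inhibition of the cancer cell line, measured in a cell viability assay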
Description: SANGER: Inhibition of human NCI-H1304 cell growth in a cell viability assay.

[28] = test system: NCI-H1581; type: functional, cell-based, Homo sapiens; conditions: Homo sapiens, NCI-H1581;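 note: cell growth inhibition read out by a viability assay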
Description: SANGER: Inhibition of human NCI-H1581 cell growth in a cell viability assay.

[29] = test system: NCI-H1838; type: functional, cell-based, Homo sapiens; conditions: Homo sapiens, NCI-H1838;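 note: growth inhibition of NCI-H1838 cells, determined with a cell viability readout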
Description: SANGER: Inhibition of human NCI-H1838 cell growth in a cell viability assay.

[30] = test system: NCI-H2126; type: functional, cell-based, Homo sapiens; conditions: Homo sapiens, NCI-H2126;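 note: growth inhibition of the cancer cell line, determined with a cell viability readout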
Description: SANGER: Inhibition of human NCI-H2126 cell growth in a cell viability assay.

[31] = test system: NCI-H446; type: functional, cell-based, Homo sapiens; conditions: Homo sapiens, NCI-H446;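 note: growth inhibition of NCI-H446 cells determined by a cell viability assay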
Description: SANGER: Inhibition of human NCI-H446 cell growth in a cell viability assay.

[32] = test system: NCI-H747; type: functional, cell-based, Homo sapiens; conditions: Homo sapiens, NCI-H747;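 note: growth inhibition of human NCI-H747 cells, read out by a cell viability assay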
Description: SANGER: Inhibition of human NCI-H747 cell growth in a cell viability assay.

[33] = test system: NKM-1; type: functional, cell-based, Homo sapiens; conditions: Homo sapiens, NKM-1;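 note: growth inhibition of NKM-1 cells, read out with a cell viability assay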
Description: SANGER: Inhibition of human NKM-1 cell growth in a cell viability assay.

[34] = test system: NMC-G1; type: functional, cell-based, Homo sapiens; conditions: Homo sapiens, NMC-G1;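 note: growth inhibition of the NMC-G1 cell line, measured with a cell viability read-out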
Description: SANGER: Inhibition of human NMC-G1 cell growth in a cell viability assay.

[35] = test system: NOMO-1; type: functional, cell-based, Homo sapiens; conditions: Homo sapiens, NOMO-1;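 note: growth inhibition of human NOMO-1 cells measured by a cell viability assay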
Description: SANGER: Inhibition of human NOMO-1 cell growth in a cell viability assay.

[36] = test system: OMC-1; type: functional, cell-based, Homo sapiens; conditions: Homo sapiens, OMC-1;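 note: growth inhibition of the OMC-1 cell line, measured by a cell viability assay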
Description: SANGER: Inhibition of human OMC-1 cell growth in a cell viability assay.

[37] = test system: OS-RC-2; type: functional, cell-based, Homo sapiens; conditions: Homo sapiens, OS-RC-2;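 note: growth inhibition of human OS-RC-2 cells, measured by a cell viability assay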
Description: SANGER: Inhibition of human OS-RC-2 cell growth in a cell viability assay.

[38] = test system: RPMI-8226; type: functional, cell-based, Homo sapiens; conditions: Homo sapiens, RPMI-8226
Description: SANGER: Inhibition of human RPMI-8226 cell growth in a cell viability assay.

[39] = test system: SK-LMS-1; type: functional, cell-based, Homo sapiens; conditions: Homo sapiens, SK-LMS-1;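 note: growth inhibition of human SK-LMS-1 cells, read out with a cell viability assay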
Description: SANGER: Inhibition of human SK-LMS-1 cell growth in a cell viability assay.

[40] = test system: SK-UT-1; type: functional, cell-based, Homo sapiens; conditions: Homo sapiens, SK-UT-1;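 note: growth inhibition of SK-UT-1 cells, measured by a cell viability assay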
Description: SANGER: Inhibition of human SK-UT-1 cell growth in a cell viability assay.

[41] = test system: SW982; type: functional, cell-based; conditions: Homo sapiens;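 note: growth inhibition of SW982 cells, read out with a cell viability assay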
Description: SANGER: Inhibition of human SW982 cell growth in a cell viability assay.

[42] = test system: TE-1; type: functional, cell-based, Homo sapiens; conditions: Homo sapiens, TE-1;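 note: growth inhibition of the human TE-1 cell line, read out with a cell viability assay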
Description: SANGER: Inhibition of human TE-1 cell growth in a cell viability assay.

[43] = test system: A3-KAW; type: functional, cell-based, Homo sapiens; conditions: Homo sapiens, A3-KAW;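 note: growth inhibition of human A3-KAW cells, read out with a cell viability assay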
Description: SANGER: Inhibition of human A3-KAW cell growth in a cell viability assay.

[44] = test system: ALL-PO; type: functional, cell-based, Homo sapiens; conditions: Homo sapiens, ALL-PO;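 note: growth inhibition of ALL-PO cells, read out by a cell viability assay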
Description: SANGER: Inhibition of human ALL-PO cell growth in a cell viability assay.

[45] = test system: AM-38; type: functional, cell-based, Homo sapiens; conditions: Homo sapiens, AM-38;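 note: growth inhibition of AM-38 cells of human origin, read out by a cell viability assay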
Description: SANGER: Inhibition of human AM-38 cell growth in a cell viability assay.

[46] = test system: TE-6; type: functional, cell-based, Homo sapiens; conditions: Homo sapiens, TE-6;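 note: growth inhibition of TE-6 cells, read out with a cell viability assay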
Description: SANGER: Inhibition of human TE-6 cell growth in a cell viability assay.

[47] = test system: COLO-320-HSR; type: functional, cell-based, Homo sapiens; conditions: Homo sapiens, COLO-320-HSR;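 note: growth inhibition of COLO-320-HSR cells, determined with a cell viability assay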
Description: SANGER: Inhibition of human COLO-320-HSR cell growth in a cell viability assay.

[48] = test system: LB996-RCC; type: functional, cell-based, Homo sapiens; conditions: Homo sapiens, LB996-RCC
Description: SANGER: Inhibition of human LB996-RCC cell growth in a cell viability assay.

[49] = test system: A253 cell line; type: functional, cell-based, Homo sapiens; conditions: Homo sapiens, A253;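 note: growth inhibition of A253 cells, read out with a cell viability assay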
Description: SANGER: Inhibition of human A253 cell growth in a cell viability assay.

[50] = test system: TGW; type: functional, cell-based, Homo sapiens; conditions: Homo sapiens, TGW;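 note: growth inhibition of human TGW cells, read out with a cell viability assay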
Description: SANGER: Inhibition of human TGW cell growth in a cell viability assay.

CN(NC(=O)CC(=O)NN(C)C(=S)c1ccccc1)C(=S)c1ccccc1 [ELESCLOMOL]
IC50 [1]: > 0.2 µM
IC50 [2]: > 0.2 µM
IC50 [3]: 0.0258 µM
IC50 [4]: 0.0233 µM
IC50 [5]: 0.0395 µM
IC50 [6]: 0.00524 µM
IC50 [7]: > 0.2 µM
IC50 [8]: 0.0187 µM
IC50 [9]: 0.016 µM
IC50 [10]: 0.0591 µM
IC50 [11]: 0.00591 µM
IC50 [12]: 0.0668 µM
IC50 [13]: 0.122 µM
IC50 [14]: 0.013 µM
IC50 [15]: 0.0374 µM
IC50 [16]: 0.177 µM
IC50 [17]: > 0.2 µM
IC50 [18]: 0.0138 µM
IC50 [19]: > 0.2 µM
IC50 [20]: 0.0564 µM
IC50 [21]: 0.0669 µM
IC50 [22]: 0.00773 µM
IC50 [23]: 0.0115 µM
IC50 [24]: 0.0136 µM
IC50 [25]: 0.0143 µM
IC50 [26]: 0.0231 µM
IC50 [27]: > 0.2 µM
IC50 [28]: 0.0246 µM
IC50 [29]: 0.184 µM
IC50 [30]: 0.0163 µM
IC50 [31]: 0.0901 µM
IC50 [32]: 0.0574 µM
IC50 [33]: > 0.2 µM
IC50 [34]: 0.0204 µM
IC50 [35]: > 0.2 µM
IC50 [36]: 0.0771 µM
IC50 [37]: 0.0477 µM
IC50 [38]: 0.046 µM
IC50 [39]: > 0.2 µM
IC50 [40]: 0.0141 µM
IC50 [41]: 0.00744 µM
IC50 [42]: 0.046 µM
IC50 [43]: 0.0865 µM
IC50 [44]: > 0.2 µM
IC50 [45]: 0.169 µM
IC50 [46]: 0.139 µM
IC50 [47]: > 0.2 µM

NC(=O)c1ccc(N(C(N)=O)c2c(F)cccc2F)nc1-c1ccc(F)cc1F [VX-702]
IC50 [1]: > 2 µM
IC50 [2]: > 2 µM
IC50 [3]: > 2 µM
IC50 [4]: > 2 µM
IC50 [5]: > 2 µM
IC50 [6]: > 2 µM
IC50 [7]: > 2 µM
IC50 [8]: > 2 µM
IC50 [9]: > 2 µM
IC50 [10]: > 2 µM
IC50 [11]: > 2 µM
IC50 [12]: > 2 µM
IC50 [13]: 0.0154 µM
IC50 [14]: > 2 µM
IC50 [15]: > 2 µM
IC50 [16]: > 2 µM
IC50 [17]: > 2 µM
IC50 [18]: > 2 µM
IC50 [19]: > 2 µM
IC50 [20]: > 2 µM
IC50 [21]: > 2 µM
IC50 [22]: > 2 µM
IC50 [23]: > 2 µM
IC50 [24]: > 2 µM
IC50 [25]: > 2 µM
IC50 [26]: > 2 µM
IC50 [27]: > 2 µM
IC50 [28]: > 2 µM
IC50 [29]: > 2 µM
IC50 [30]: > 2 µM
IC50 [31]: > 2 µM
IC50 [32]: > 2 µM
IC50 [33]: > 2 µM
IC50 [34]: > 2 µM
IC50 [35]: > 2 µM
IC50 [36]: > 2 µM
IC50 [37]: > 2 µM
IC50 [38]: > 2 µM
IC50 [39]: > 2 µM
IC50 [40]: > 2 µM
IC50 [41]: > 2 µM
IC50 [42]: > 2 µM
IC50 [43]: > 2 µM
IC50 [44]: > 2 µM
IC50 [45]: > 2 µM
IC50 [46]: > 2 µM
IC50 [47]: > 2 µM

O=C(NCCCNc1nc(Nc2cccc(NC(=O)N3CCCC3)c2)ncc1I)c1cccs1 [BX-795]
IC50 [1]: > 5 µM
IC50 [2]: > 5 µM
IC50 [3]: > 5 µM
IC50 [4]: > 5 µM
IC50 [5]: > 5 µM
IC50 [6]: > 5 µM
IC50 [7]: > 5 µM
IC50 [8]: > 5 µM
IC50 [9]: 1.9 µM
IC50 [10]: > 5 µM
IC50 [11]: 3.87 µM
IC50 [12]: 2.54 µM
IC50 [14]: > 5 µM
IC50 [15]: > 5 µM
IC50 [16]: 3.7 µM
IC50 [17]: > 5 µM
IC50 [18]: 1.83 µM
IC50 [19]: > 5 µM
IC50 [20]: 2.69 µM
IC50 [21]: > 5 µM
IC50 [48]: 4.51 µM
IC50 [22]: > 5 µM
IC50 [23]: 2.81 µM
IC50 [24]: > 5 µM
IC50 [25]: 3.59 µM
IC50 [26]: 4.02 µM
IC50 [27]: > 5 µM
IC50 [28]: > 5 µM
IC50 [29]: > 5 µM
IC50 [30]: > 5 µM
IC50 [31]: 4.93 µM
IC50 [32]: > 5 µM
IC50 [33]: 0.362 µM
IC50 [34]: > 5 µM
IC50 [35]: > 5 µM
IC50 [36]: > 5 µM
IC50 [37]: > 5 µM
IC50 [38]: > 5 µM
IC50 [40]: 2.29 µM
IC50 [41]: 0.951 µM
IC50 [42]: > 5 µM
IC50 [49]: 4.19 µM
IC50 [43]: 0.731 µM
IC50 [44]: 1.06 µM
IC50 [45]: > 5 µM
IC50 [46]: > 5 µM
IC50 [50]: 4.58 µM
IC50 [47]: > 5 µM

CO[C@@H]1[C@H](N(C)C(=O)c2ccccc2)C[C@H]2O[C@]1(C)n1c3ccccc3c3c4c(c5c6ccccc6n2c5c31)C(=O)NC4 [MIDOSTAURIN]
IC50 [9]: 0.38 µM
IC50 [13]: 0.181 µM
IC50 [15]: > 0.512 µM
IC50 [32]: > 0.512 µM
IC50 [39]: 0.353 µM
IC50 [40]: 0.33 µM
IC50 [47]: > 0.512 µM
